Assay results published in ChEMBL document CHEMBL1909046, “DrugMatrix in vitro pharmacology data”.

How the values were obtained:
[1] = DRUGMATRIX: Atrial Natriuretic Factor (ANF) radioligand binding (ligand: [125I] ANF (rat)); assay type: cell membranes, Cavia porcellus, Dunkin-Hartley, Adrenal gland, Membrane; settings: Not Active = under 50% inhibition at 10 µM
[2] = DRUGMATRIX: Tumor Necrosis Factor (TNF), Non-Selective radioligand binding (ligand: [125I] TNF-alpha); assay type: cell membranes, Membrane; settings: u-937; Not Active = under 50% inhibition at 10 µM
[3] = DRUGMATRIX: Interleukin IL-1 radioligand binding (ligand: [125I] interleukin 1beta); assay type: cell membranes, Membrane; settings: nih3t3; Not Active = under 50% inhibition at 10 µM
Melanocortin receptor 5 = Melanocortin receptor 5 (Homo sapiens, UniProt P33032); assay type: cell membranes, HEK293, Membrane; further: in other assays of this panel Not Active means under 50% inhibition at 10 µM
Adenosine receptor A1 = target: T1, Adenosine receptor A1 (Homo sapiens, UniProt P30542); assay type: cell membranes, CHO, Membrane; settings: cho;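 further: radioligand binding assay at the adenosine A1 receptor, with DPCPX serving as the labelled ligand; in other assays of this panel Not Active means under 50% inhibition at 10 µM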
T1 sequence (P30542 whole entry): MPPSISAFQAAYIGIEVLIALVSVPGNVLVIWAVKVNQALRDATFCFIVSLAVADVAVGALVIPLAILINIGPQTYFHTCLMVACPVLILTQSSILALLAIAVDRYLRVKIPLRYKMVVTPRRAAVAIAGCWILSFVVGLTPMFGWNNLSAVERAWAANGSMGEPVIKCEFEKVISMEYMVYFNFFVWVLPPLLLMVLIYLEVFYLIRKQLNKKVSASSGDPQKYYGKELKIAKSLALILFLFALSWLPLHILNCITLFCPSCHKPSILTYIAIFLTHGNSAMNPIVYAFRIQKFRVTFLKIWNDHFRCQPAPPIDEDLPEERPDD

Adenosine receptor A3 = target: T2, Adenosine receptor A3 (Homo sapiens, UniProt P0DMS8); assay type: cell membranes, CHO-K1, Membrane;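 further: radioligand binding assay with AB-MECA serving as the labeled ligand; in other assays of this panel Not Active means under 50% inhibition at 10 µM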
T2 sequence (P0DMS8 whole entry): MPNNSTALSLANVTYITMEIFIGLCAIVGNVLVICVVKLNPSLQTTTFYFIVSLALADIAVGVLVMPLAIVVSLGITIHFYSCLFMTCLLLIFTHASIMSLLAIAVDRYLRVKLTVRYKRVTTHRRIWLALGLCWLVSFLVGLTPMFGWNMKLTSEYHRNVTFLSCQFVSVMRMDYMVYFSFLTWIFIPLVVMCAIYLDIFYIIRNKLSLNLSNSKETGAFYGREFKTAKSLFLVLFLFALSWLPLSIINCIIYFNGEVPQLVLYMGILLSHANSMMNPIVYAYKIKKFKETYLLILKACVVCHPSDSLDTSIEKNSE

Cytochrome P450 2E1 = Cytochrome P450 2E1 (Homo sapiens, UniProt P05181); settings: bti-tn-5b1-4; further: in other assays of this panel Not Active means under 50% inhibition at 10 µM
Sequence of Cytochrome P450 2E1 (P05181 whole entry): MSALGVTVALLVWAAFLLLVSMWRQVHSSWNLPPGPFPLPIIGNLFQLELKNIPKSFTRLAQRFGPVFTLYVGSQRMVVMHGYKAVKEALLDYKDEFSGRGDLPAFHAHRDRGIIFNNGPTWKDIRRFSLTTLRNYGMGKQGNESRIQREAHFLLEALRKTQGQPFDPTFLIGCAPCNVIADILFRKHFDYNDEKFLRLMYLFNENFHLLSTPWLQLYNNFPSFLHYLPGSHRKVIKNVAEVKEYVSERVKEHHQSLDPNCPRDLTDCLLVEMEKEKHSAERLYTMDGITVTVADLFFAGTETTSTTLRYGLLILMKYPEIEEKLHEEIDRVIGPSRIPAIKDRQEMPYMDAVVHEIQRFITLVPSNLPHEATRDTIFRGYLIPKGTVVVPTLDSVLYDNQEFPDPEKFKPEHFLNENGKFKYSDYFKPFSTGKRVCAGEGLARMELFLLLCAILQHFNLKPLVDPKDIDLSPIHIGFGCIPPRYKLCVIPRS

Sequence of Melanocortin receptor 5 (P33032 whole entry): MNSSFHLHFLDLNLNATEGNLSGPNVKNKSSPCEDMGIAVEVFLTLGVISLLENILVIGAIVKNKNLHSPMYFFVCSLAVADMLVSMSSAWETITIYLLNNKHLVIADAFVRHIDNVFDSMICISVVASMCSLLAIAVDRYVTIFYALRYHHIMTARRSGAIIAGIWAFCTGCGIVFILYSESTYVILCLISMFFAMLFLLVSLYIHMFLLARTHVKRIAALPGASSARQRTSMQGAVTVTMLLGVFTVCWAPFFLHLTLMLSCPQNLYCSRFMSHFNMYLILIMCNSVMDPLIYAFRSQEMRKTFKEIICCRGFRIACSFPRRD

SMILES | IC50 [1] | Ki [1] | IC50 [2] | Ki [2] | IC50 [3] | Ki [3] | IC50 (Melanocortin receptor 5; hek293) | IC50 (Adenosine receptor A1) | IC50 (Adenosine receptor A3; cho-k1) | IC50 (Cytochrome P450 2E1) | Ki (Cytochrome P450 2E1) | IC50 (Adenosine receptor A3; read-out: IC50) | Ki (Adenosine receptor A3; read-out: Ki) | IC50 (Melanocortin receptor 5; read-out: IC50) | Ki (Melanocortin receptor 5; read-out: Ki)
CC(C)C(Br)C(=O)NC(N)=O (stereo not drawn) [BROMISOVALUM] | Not Active | Not Active | Not Active | Not Active | Not Active | Not Active | Not Active | Not Active | Not Active | Not Active | Not Active |  |  |  | 
CCCC1O[C@@H]2C[C@H]3[C@@H]4CCC5=CC(=O)C=C[C@]5(C)[C@H]4[C@@H](O)C[C@]3(C)[C@]2(C(=O)CO)O1 (stereo partly drawn) [BUDESONIDE] | Not Active | Not Active | Not Active | Not Active | Not Active | Not Active | Not Active | Not Active | Not Active | Not Active | Not Active |  |  |  | 
CC(NC(C)(C)C)C(=O)c1cccc(Cl)c1 (stereo not drawn) [BUPROPION] | Not Active | Not Active | Not Active | Not Active | Not Active | Not Active | Not Active | Not Active | Not Active | Not Active | Not Active |  |  |  | 
CN(Cc1ccc(C(C)(C)C)cc1)Cc1cccc2ccccc12 [BUTENAFINE] | Not Active | Not Active | Not Active | Not Active | Not Active | Not Active | Not Active | Not Active | Not Active | Not Active | Not Active |  |  |  | 
C[C@H](CS)C(=O)N1CCC[C@H]1C(=O)O [CAPTOPRIL] | Not Active | Not Active | Not Active | Not Active | Not Active | Not Active | Not Active | Not Active | Not Active | Not Active | Not Active |  |  |  | 
Cc1ccc(-c2cc(C(F)(F)F)nn2-c2ccc(S(N)(=O)=O)cc2)cc1 [CELECOXIB] | Not Active | Not Active | Not Active | Not Active | Not Active | Not Active | Not Active | Not Active |  | Not Active | Not Active | 24.6 µM | 13.9 µM |  | 
O=C(O)CCCc1ccc(N(CCCl)CCCl)cc1 [CHLORAMBUCIL] | Not Active | Not Active | Not Active | Not Active | Not Active | Not Active | Not Active | Not Active | Not Active | Not Active | Not Active |  |  |  | 
CN(C)CCCN1c2ccccc2Sc2ccc(Cl)cc21 [CHLORPROMAZINE] | Not Active | Not Active | Not Active | Not Active | Not Active | Not Active |  | Not Active | Not Active | Not Active | Not Active |  |  | 7.62 µM | 7.15 µM
C[C@H](CCC(=O)O)[C@H]1CC[C@H]2[C@@H]3[C@H](O)C[C@@H]4C[C@H](O)CC[C@]4(C)[C@H]3C[C@H](O)[C@]12C [CHOLIC ACID] | Not Active | Not Active | Not Active | Not Active | Not Active | Not Active | Not Active | Not Active | Not Active | Not Active | Not Active |  |  |  | 
Cc1cc(C2CCCCC2)n(O)c(=O)c1 [CICLOPIROX] | Not Active | Not Active | Not Active | Not Active | Not Active | Not Active | Not Active | Not Active | Not Active | Not Active | Not Active |  |  |  | 
CC1=C2C(=CO[C@H](C)[C@H]2C)C(O)=C(C(=O)O)C1=O [CITRININ] | Not Active | Not Active | Not Active | Not Active | Not Active | Not Active | Not Active | Not Active | Not Active | Not Active | Not Active |  |  |  | 
